Assays:
[1] = system: Nephotettix cinciceps (Rice Leafhopper); assay: Method C: Nephotettix cinciceps (Rice Leafhopper) screen, dipped rice plants; type: in vivo, Nephotettix cincticeps; details: 144 h, test concentration of 100 ppm, L3 larvae, after 6 days storage
Description: Method C: Nephotettix Cinciceps (Rice Leafhopper) Screen
The leaves of 12 rice plants having a stem length of 8 cm were dipped for 5 seconds into an aqueous solution of the formulated test compound. After the solution had run off, the rice plants treated in this manner were placed in a Petri dish and populated with about 20 larvae (L3 stage) of Nephotettix cincticeps. The Petri dish was closed and then stored in a climate chamber (16 hours of light/day, 25° C., 40-60% relative humidity). After 6 days storage, the percentage mortality of leafhopper larvae was determined.

Compound	melting point [°C]	mortality at 100 ppm [1] [%]
CCSCCCNc1c(S(=O)(=O)C(F)(F)F)c(C#N)nn1-c1c(Cl)cc(C(F)(F)F)cc1Cl [Compound 1-14, 1-(2,6-dichloro-4-trifluoromethylphenyl)-3-cyano-5-(3-ethylthiopropylamino)-4-trifluoromethylsulfonylpyrazole]	80	
[O-][S+](C1CCSC1)C1CCSC1 (stereo not drawn) [Compound 1-37, 3-tetrahydrothienyl sulfoxide]		≥ 98
CCSCCCN(C)c1c(S(=O)(=O)C(F)(F)F)c(C#N)nn1-c1c(Cl)cc(C(F)(F)F)cc1Cl [Compound 2-14, 1-(2,6-dichloro-4-trifluoromethylphenyl)-3-cyano-5-[N-(3-ethylthiopropyl)-N-methylamino]-4-trifluoromethylsulfonylpyrazole]	89	
